Molecules are shown by their SMILES.

Experiment [1] concerns the target VZV polymerase (Varicella-zoster virus, UniProt P09252). Description: VZV polymerase assay (Table 1). Format: biochemical.
For experiment [2], the target named is HSV polymerase (Human herpesvirus 1, UniProt P04293). In words: HSV polymerase assay (Table 1). Format: biochemical.
The target in experiment [3] is T1, HCMV polymerase (Human cytomegalovirus, UniProt P08546).
T1 construct: made in house; host or cells: recombinant baculovirus-infected SF-9 insect cells
T1 sequence (P08546 whole entry): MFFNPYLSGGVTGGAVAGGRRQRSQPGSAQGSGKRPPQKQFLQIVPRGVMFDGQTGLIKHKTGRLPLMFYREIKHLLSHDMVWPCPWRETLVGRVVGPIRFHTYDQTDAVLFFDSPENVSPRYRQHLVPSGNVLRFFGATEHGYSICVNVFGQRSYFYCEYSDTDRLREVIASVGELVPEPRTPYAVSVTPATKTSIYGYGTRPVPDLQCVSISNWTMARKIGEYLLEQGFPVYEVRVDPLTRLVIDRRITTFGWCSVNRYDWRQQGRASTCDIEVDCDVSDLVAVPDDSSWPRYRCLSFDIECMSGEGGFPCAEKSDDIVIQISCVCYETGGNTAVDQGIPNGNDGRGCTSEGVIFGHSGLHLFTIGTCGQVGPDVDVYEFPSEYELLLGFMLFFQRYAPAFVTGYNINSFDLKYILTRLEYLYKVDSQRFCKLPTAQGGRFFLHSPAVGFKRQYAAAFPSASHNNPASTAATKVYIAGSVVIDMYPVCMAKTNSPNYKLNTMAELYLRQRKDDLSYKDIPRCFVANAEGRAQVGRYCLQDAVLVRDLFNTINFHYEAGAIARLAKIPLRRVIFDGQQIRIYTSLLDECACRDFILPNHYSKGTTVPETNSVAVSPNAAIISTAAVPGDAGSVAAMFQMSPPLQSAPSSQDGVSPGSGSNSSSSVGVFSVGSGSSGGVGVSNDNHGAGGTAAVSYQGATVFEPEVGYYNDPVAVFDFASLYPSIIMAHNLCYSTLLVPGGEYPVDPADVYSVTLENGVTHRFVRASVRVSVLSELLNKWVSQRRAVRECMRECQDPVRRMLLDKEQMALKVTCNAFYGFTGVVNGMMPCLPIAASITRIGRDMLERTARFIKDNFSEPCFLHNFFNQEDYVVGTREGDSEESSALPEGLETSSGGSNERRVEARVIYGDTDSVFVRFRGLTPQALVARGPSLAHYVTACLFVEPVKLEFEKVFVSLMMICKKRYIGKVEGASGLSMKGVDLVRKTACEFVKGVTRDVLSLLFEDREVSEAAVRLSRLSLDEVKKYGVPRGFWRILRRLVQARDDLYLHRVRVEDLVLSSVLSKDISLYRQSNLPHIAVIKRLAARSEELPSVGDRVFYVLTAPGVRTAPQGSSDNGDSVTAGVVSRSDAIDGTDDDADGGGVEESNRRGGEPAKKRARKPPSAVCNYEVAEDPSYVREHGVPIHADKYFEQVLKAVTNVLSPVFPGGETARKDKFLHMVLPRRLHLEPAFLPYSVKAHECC
In words: biochemical. The following applies: HCMV polymerase; SPA; modified assay: compounds in 100% DMSO, 4.5 mM DTT. The method in brief:
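Scintillation proximity assay with baculovirus/SF-9-expressed HCMV polymerase, 90 nM ³H-dTTP and 6 nM biotinylated poly(dA)-oligo(dT) in HEPES pH 7.5/KCl/MgCl2/BSA, ±2 mM CHAPS, 25 or 37 °C, 30 min for HCMV. Modified version: compounds diluted in 100% DMSO, 4.5 mM DTT added. IC50 from linear regression.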

Chain of VZV polymerase (P09252 whole entry): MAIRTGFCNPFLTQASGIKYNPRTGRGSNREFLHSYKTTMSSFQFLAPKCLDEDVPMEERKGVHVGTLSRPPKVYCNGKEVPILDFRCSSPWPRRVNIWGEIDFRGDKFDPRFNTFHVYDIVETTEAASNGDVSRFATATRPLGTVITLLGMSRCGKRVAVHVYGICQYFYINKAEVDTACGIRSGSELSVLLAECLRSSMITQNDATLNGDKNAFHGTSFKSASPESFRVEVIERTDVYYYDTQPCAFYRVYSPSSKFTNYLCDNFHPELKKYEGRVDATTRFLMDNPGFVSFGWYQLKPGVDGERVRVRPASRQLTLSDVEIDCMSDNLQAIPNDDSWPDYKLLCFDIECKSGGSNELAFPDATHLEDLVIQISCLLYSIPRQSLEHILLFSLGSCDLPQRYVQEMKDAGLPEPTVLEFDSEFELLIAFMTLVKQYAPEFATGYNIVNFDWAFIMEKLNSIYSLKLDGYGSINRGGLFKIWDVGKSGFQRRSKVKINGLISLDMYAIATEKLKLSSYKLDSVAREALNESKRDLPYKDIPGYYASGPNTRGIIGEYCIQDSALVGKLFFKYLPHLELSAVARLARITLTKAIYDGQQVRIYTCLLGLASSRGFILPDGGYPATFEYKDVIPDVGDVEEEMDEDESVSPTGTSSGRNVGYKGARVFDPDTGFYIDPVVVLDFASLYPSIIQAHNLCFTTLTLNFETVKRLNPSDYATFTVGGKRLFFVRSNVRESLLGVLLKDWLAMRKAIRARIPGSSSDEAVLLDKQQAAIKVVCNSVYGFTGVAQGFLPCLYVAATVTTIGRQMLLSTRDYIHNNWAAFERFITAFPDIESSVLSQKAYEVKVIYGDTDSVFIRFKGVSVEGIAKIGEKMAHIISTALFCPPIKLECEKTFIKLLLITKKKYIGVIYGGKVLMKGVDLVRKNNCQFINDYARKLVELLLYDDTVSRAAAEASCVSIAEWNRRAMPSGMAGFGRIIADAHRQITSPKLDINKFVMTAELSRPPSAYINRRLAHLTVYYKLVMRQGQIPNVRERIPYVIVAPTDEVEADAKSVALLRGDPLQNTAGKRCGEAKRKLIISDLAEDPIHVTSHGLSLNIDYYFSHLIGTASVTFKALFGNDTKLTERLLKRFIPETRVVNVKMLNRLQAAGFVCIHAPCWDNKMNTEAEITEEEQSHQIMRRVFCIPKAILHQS
Chain of HSV polymerase (P04293 whole entry): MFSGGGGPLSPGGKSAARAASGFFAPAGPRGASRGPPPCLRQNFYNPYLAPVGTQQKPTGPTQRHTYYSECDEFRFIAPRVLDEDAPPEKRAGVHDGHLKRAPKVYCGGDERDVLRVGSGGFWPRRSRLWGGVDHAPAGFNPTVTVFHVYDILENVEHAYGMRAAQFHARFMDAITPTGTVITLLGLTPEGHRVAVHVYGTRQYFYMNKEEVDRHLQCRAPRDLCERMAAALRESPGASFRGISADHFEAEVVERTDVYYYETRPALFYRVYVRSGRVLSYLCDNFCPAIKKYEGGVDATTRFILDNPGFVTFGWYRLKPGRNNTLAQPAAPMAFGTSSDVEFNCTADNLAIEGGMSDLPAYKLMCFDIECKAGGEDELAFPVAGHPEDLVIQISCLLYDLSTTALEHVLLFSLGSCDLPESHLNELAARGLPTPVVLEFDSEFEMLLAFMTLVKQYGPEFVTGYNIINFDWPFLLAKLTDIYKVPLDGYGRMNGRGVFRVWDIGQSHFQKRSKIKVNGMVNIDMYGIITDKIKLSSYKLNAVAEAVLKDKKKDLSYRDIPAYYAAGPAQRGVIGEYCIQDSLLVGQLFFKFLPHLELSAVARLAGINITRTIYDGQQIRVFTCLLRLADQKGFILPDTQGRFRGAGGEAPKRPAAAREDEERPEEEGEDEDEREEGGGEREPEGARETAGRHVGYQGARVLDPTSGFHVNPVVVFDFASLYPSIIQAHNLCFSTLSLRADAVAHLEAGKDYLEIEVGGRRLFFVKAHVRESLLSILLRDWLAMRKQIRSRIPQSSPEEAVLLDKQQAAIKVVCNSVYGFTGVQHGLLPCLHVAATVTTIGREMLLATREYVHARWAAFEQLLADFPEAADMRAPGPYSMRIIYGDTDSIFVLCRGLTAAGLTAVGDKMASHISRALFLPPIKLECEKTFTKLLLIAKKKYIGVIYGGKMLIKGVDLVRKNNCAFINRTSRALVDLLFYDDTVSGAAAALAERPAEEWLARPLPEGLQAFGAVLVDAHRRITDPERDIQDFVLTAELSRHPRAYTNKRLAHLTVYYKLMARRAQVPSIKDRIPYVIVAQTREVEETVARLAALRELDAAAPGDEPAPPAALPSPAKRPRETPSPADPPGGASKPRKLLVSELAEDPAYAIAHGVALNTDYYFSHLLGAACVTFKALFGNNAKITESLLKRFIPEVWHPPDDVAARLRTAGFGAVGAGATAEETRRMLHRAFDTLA

In the case of `CN(Cc1ccc2c(c1)c(=O)c(C(=O)NCc1ccc(Cl)cc1)cn2C)CC(O)c1ccc(O)cc1` (stereo not drawn) [Example 74, N-(4-Chlorobenzyl)-6-([(2-hydroxy-2-[4-hydroxyphenyl]-ethyl) [methyl]amino]methyl)-1-methyl-4-oxo-1,4-dihydro-3-quinolinecarboxamide], the half-maximal inhibitory concentration (IC50) (in general, the concentration at which inhibition is half-maximal) in experiment [1] was 1600 nM; in experiment [2], 2800 nM; in experiment [3], 890 nM.

Take `Cn1cc(C(=O)NCc2ccc(Cl)cc2)c(=O)c2cc(CN3CC(O)C3)ccc21` [Example 75, N-(4-Chlorobenzyl)-6-[(3-hydroxy-1-azetidinyl)methyl]-1-methyl-4-oxo-1,4-dihydro-3-quinolinecarboxamide]: the half-inhibitory concentration (IC50) turned out to be 4000 nM in experiment [1], 4400 nM in experiment [2] and 3300 nM in experiment [3].

With `O=C(NCc1ccc(Cl)cc1)c1cn(CSc2ccccc2)c2ccc(CN3CCOCC3)cc2c1=O` [Example 76, N-(4-Chlorobenzyl)-6-(morpholinylmethyl)-4-oxo-1-[(phenylsulfanyl)methyl]-1,4-dihydro-3-quinolinecarboxamide], the IC50 in experiment [1] is < 310 nM; in experiment [2] it was < 310 nM; in experiment [3], 180 nM.

Regarding `COc1cc(C(O)CN(C)Cc2ccc3c(c2)c(=O)c(C(=O)NCc2ccc(Cl)cc2)cn3C)ccc1O` (stereo not drawn) [Example 77, N-(4-Chlorobenzyl)-6-([(2-hydroxy-2-[4-hydroxy-3-methoxyphenyl]ethyl)[methyl]amino]methyl)-1-methyl-4-oxo-1,4-dihydro-3-quinolinecarboxamide], the IC50 was 2100 nM in experiment [1], 4100 nM in experiment [2] and 1300 nM in experiment [3].

For the origin of these results see US6248739A, “Quinolinecarboxamides as antiviral agents” (Pharmacia & Upjohn Company, priority 1999, dated 2001).
